Experimental data reported in the supplement of paper PMC10307832.

Key:
Experiment in all cases: relative viability (nuclei count vs DMSO), 5 days (fraction); higher = more cells survive
[1] = compound: C[C@@]1(C(=O)Nc2ccc(F)nc2)CCCN1c1nc(Nc2cc(C3CC3)n[nH]2)c2cccn2n1 + C[C@]1(O)C[C@@H](c2nc(-c3ccc4ccc(-c5ccccc5)nc4c3)c3c(N)nccn32)C1 [Linsitinib] (partner 1 µM)
How it was run: (§1)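 For relative viability, nuclei counts in treated wells were divided by those in vehicle wells. Lung cancer cell lines had been pin-tool dosed in 1536-well plates the day after seeding and cultured for 5 days, then fixed and stained in one step (final 0.05% Triton X-100, 1% formaldehyde, 1 ug/ml Hoechst) and imaged at 4×. Doses were one drug alone or a fixed anchor-drug dose plus five library-drug doses (not always all listed) in √10 steps, and values are duplicate-plate medians.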

[2] = compound: C[C@@]1(C(=O)Nc2ccc(F)nc2)CCCN1c1nc(Nc2cc(C3CC3)n[nH]2)c2cccn2n1 + CC1(C)CCC(c2ccc(Cl)cc2)=C(CN2CCN(c3ccc(C(=O)NS(=O)(=O)c4ccc(N[C@H](CCN5CCOCC5)CSc5ccccc5)c(S(=O)(=O)C(F)(F)F)c4)cc3)CC2)C1 [Navitoclax] (partner 0.5 µM)
How it was run: as §1

[3] = compound: CC1(C)CNc2cc(NC(=O)c3cccnc3NCc3ccncc3)ccc21 [Motesanib] + Cc1cc(Nc2cc(N3CCN(C)CC3)nc(Sc3ccc(NC(=O)C4CC4)cc3)n2)n[nH]1 [Tozasertib] (partner 0.1 µM)
How it was run: as §1

[4] = compound: C[C@@]1(C(=O)Nc2ccc(F)nc2)CCCN1c1nc(Nc2cc(C3CC3)n[nH]2)c2cccn2n1 + CC(=O)c1c(C)c2cnc(Nc3ccc(N4CCNCC4)cn3)nc2n(C2CCCC2)c1=O [Palbociclib] (partner 0.5 µM)
How it was run: as §1

Row | Cell Line | relative viability ([1]; first compound 0.04 µM) | relative viability ([1]; first compound 0.1265 µM) | relative viability ([1]; first compound 0.4 µM) | relative viability ([1]; first compound 1.265 µM) | relative viability ([2]; first compound 0.04 µM) | relative viability ([2]; first compound 0.1265 µM) | relative viability ([2]; first compound 0.4 µM) | relative viability ([2]; first compound 1.265 µM) | relative viability ([3]; first compound 0.01 µM) | relative viability ([3]; first compound 0.03162 µM) | relative viability ([3]; first compound 0.1 µM) | relative viability ([3]; first compound 0.3162 µM) | relative viability ([3]; first compound 1 µM) | relative viability ([4]; first compound 0.04 µM) | relative viability ([4]; first compound 0.1265 µM) | relative viability ([4]; first compound 0.4 µM) | relative viability ([4]; first compound 1.265 µM)
1 | NCI-H1975 | 0.913 | 0.922 | 0.933 | 0.727 | 0.988 | 1.06 | 0.773 | 0.765 | 0.771 | 0.65 | 0.773 | 0.711 | 0.648 | 0.564 | 0.521 | 0.374 | 0.452
2 | CAL-12T | 0.827 | 0.849 | 0.78 | 0.817 | 1.18 | 1.16 | 1.14 | 1.06 | 0.348 | 0.254 | 0.351 | 0.384 | 0.371 | 0.407 | 0.407 | 0.358 | 0.164
3 | NCI-H1623 | – | – | – | – | – | – | – | – | 0.414 | 0.426 | 0.457 | 0.425 | 0.475 | – | – | – | –
4 | HCC-44 | 0.777 | 0.622 | 0.605 | 0.945 | 0.804 | 0.884 | 0.68 | 0.903 | 0.944 | 0.721 | 0.941 | 0.998 | 0.974 | 0.846 | 0.904 | 0.803 | 0.885
5 | EKVX | 0.989 | 0.742 | 0.725 | 0.964 | 0.944 | 0.728 | 0.785 | 0.593 | 0.368 | 0.381 | 0.356 | 0.432 | 0.422 | 0.387 | 0.277 | 0.279 | 0.286
6 | NCI-H1651 | 1.04 | 0.898 | 0.984 | 1.12 | 0.963 | 1.12 | 0.861 | 1.16 | 0.67 | 0.655 | 0.754 | 0.732 | 0.797 | 0.494 | 0.442 | 0.439 | 0.491
7 | NCI-H1944 | 1.18 | 1.2 | 1.1 | 1.3 | 0.991 | 0.947 | 0.981 | 1.08 | 0.258 | 0.229 | 0.233 | 0.236 | 0.284 | 0.272 | 0.237 | 0.251 | 0.294
8 | NCI-H1703 | 1.03 | 0.457 | 0.632 | 0.695 | 1.25 | 1.02 | 0.783 | 0.743 | – | – | – | – | – | – | – | – | –
9 | Calu-6 | 0.91 | 0.895 | 0.833 | 0.859 | 0.83 | 0.637 | 0.62 | 0.141 | – | – | – | – | – | – | – | – | –
10 | EBC-1 | 0.953 | 0.76 | 0.706 | 0.891 | 0.342 | 0.315 | 0.315 | 0.197 | – | – | – | – | – | – | – | – | –
11 | SW 1573 | 0.914 | 0.665 | 0.656 | 0.806 | 0.875 | 0.471 | 0.655 | 0.8 | 0.144 | 0.145 | 0.187 | 0.222 | 0.177 | 0.342 | 0.262 | 0.294 | 0.304
12 | A-427 | 1.11 | 1.05 | 1.08 | 1.16 | 0.885 | 0.988 | 1.03 | 0.915 | 0.185 | 0.191 | 0.24 | 0.236 | 0.173 | 0.497 | 0.459 | 0.459 | 0.472
13 | NCI-H2347 | 0.988 | 0.736 | 0.915 | 0.893 | 0.777 | 0.544 | 0.661 | 0.846 | 0.466 | 0.445 | 0.548 | 0.524 | 0.443 | 0.405 | 0.415 | 0.386 | 0.436
14 | NCI-H1355 | 0.815 | 0.882 | 0.727 | 0.887 | 0.776 | 0.924 | 0.787 | 0.86 | 0.556 | 0.414 | 0.639 | 0.59 | 0.448 | 0.312 | 0.269 | 0.242 | 0.321
15 | NCI-H358 | 0.654 | 0.663 | 0.494 | 0.474 | – | – | – | – | 0.103 | 0.103 | 0.104 | 0.103 | 0.107 | 0.112 | 0.121 | 0.115 | 0.107
16 | PC-3 [JPC-3] | 0.972 | 0.94 | 0.964 | 0.934 | 0.777 | 0.716 | 0.789 | 0.743 | 0.855 | 0.931 | 0.884 | 0.864 | 0.85 | 0.557 | 0.467 | 0.516 | 0.549
17 | NCI-H2228 | 0.679 | 0.616 | 0.69 | 0.769 | 0.561 | 0.762 | 0.723 | 0.633 | 0.355 | 0.184 | 0.289 | 0.272 | 0.251 | 0.694 | 0.425 | 0.463 | 0.498
18 | HOP-62 | 0.927 | 0.773 | 1.06 | 1.06 | 1.12 | 0.887 | 0.826 | 1.03 | 0.369 | 0.306 | 0.412 | 0.388 | 0.395 | 0.51 | 0.42 | 0.359 | 0.475
19 | HARA | 0.947 | 0.939 | 0.88 | 1.12 | 1.16 | 1.18 | 1.17 | 1.16 | 0.117 | 0.0896 | 0.097 | 0.133 | 0.0863 | 0.238 | 0.189 | 0.159 | 0.218
20 | NCI-H838 | 1.09 | 0.848 | 0.753 | 0.874 | 1.21 | 1.01 | 0.948 | 1.1 | 0.296 | 0.244 | 0.255 | 0.236 | 0.249 | 0.241 | 0.191 | 0.185 | 0.17
21 | NCI-H1755 | 1.01 | 0.954 | 0.895 | 1.04 | 1 | 0.864 | 0.913 | 0.971 | 0.498 | 0.588 | 0.568 | 0.652 | 0.537 | 0.403 | 0.433 | 0.469 | 0.494
